The values below come from the supplement of paper PMC3974653.

Where a name gives a salt, the structure may show the parent alone.

For the experiment, the system named is MTT (mouse pheochromocytoma). Put plainly: IC50 of cell viability (ATP content). The conditions noted are these: (24 or 48 h). Summed up: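 CellTiter-Glo ATP luminescence, read after 15 minutes, was used to assess MTT mouse pheochromocytoma cells treated for 24 or 48 hrs with library compounds (final 0.5 nM to 46 µM, 8 concentrations). The cells had been plated at 5 µl of 200,000 cells/ml per well in white 1536-well plates in DMEM with 5% FBS and 1% horse serum and cultured overnight at 37°C, 5% CO2. Normalisation set positive-control wells to 100% and DMSO wells to 0%. The IC50 was then determined by four-parameter logistic fitting.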

For the molecule `CC/1=N/C2=CC=CC=C2C(=O)N1C3=C(Cl)C=CC=C3` [Mecloqualone], the “IC50 of cell viability” value is more than 46 µM. `Cc1cccc(CN2CCN([C@@H](c3ccccc3)c3ccc(Cl)cc3)CC2)c1` [Meclozine dihydrochloride]: the “IC50 of cell viability” value was more than 46 µM. Take `C/C1=C2/N=C(C=C3N=C(/C(C)=C4\[N-][C@@H]([C@H](CC(N)=O)[C@]4(C)CCC(=O)NC[C@@H](C)OP(=O)([O-])O[C@@H]4[C@@H](O)[C@H](n5cnc6cc(C)c(C)cc65)O[C@@H]4CO)[C@@]4(C)N=C1[C@H](CCC(N)=O)[C@@]4(C)CC(N)=O)[C@H](CCC(N)=O)C3(C)C)[C@@H](CCC(N)=O)[C@@]2(C)CC(N)=O.[CH3-].[Co+3]` [Mecobalamin]: the “IC50 of cell viability” value was more than 46 µM.

On to `CN1CCN=C(c2ccccc2)c2cc(Cl)ccc21` [Medazepam], for which the “IC50 of cell viability” value was more than 46 µM. For `Cc1cccc(C(C)c2cnc[nH]2)c1C` (stereo unspecified) [Medetomidine hydrochloride] the value was more than 46 µM; for `CC(=O)C1(O)CCC2C3CC(C)C4=CC(=O)CCC4(C)C3CCC21C` (stereo unspecified) [Medroxyprogesterone], more than 46 µM. In the case of `C[C@H]/1C[C@H]2[C@H]3CC[C@@H](C(C)=O)[C@]3(C)C[C@@H](O)[C@@H]2[C@]4(C)CCC(=O)\C=C14` [Medrysone], the “IC50 of cell viability” value was more than 46 µM. The result for `Cc1cccc(Nc2ccccc2C(=O)O)c1C` [Mefenamic acid] reads more than 46 µM; that for `CC(=O)O[C@@]1(CC[C@@H]2[C@@H]3\C=C(C)/C4=C/C(=O)CC[C@@]4(C)[C@H]3CC[C@@]12C)C(C)=O` [Megestrol acetate], more than 46 µM. For `CNC[C@H](O)[C@@H](O)[C@H](O)[C@H](O)CO` [Meglumine] the value was more than 46 µM.

Take `Cc1cnc(NC(=O)C2C(=O)c3ccccc3[S+](=O)([O-])N2C)s1` (stereo unspecified) [Meloxicam]: the “IC50 of cell viability” value was more than 46 µM.

For the molecule `N[C@@H](Cc1ccc(N(CCCl)CCCl)cc1)C(=O)O` [Melphalan], the “IC50 of cell viability” value is more than 46 µM. For `CC1(S(=O)(=O)[O-])CC(=O)c2ccccc2C1=O` (stereo unspecified) [Menadione sodium bisulfite] the value was more than 46 µM; for `COc1ccc(C(=O)CCC(=O)O)c2ccccc12` [Menbutone], more than 46 µM. Turning to `C[N+]1(C)CCC[C@H](OC(=O)C(O)(c2ccccc2)c2ccccc2)C1` [Mepenzolate bromide], the “IC50 of cell viability” value was more than 46 µM. Regarding `COc1ccccc1OCC1CNC(=O)O1` (stereo unspecified) [Mephenoxalone], the “IC50 of cell viability” value was more than 46 µM.

Regarding `CNC(C)(C)Cc1ccccc1` [Mephentermine hemisulfate], the “IC50 of cell viability” value is more than 46 µM. For `CCC1(c2ccccc2)C(=O)NC(=O)N(C)C1=O` (stereo unspecified) [Mephobarbital] the value was more than 46 µM; for `[O-][n+]1cccc(CO)c1` [Mepiroxol], more than 46 µM.

Regarding `Cc1ccc2c(n1)Oc1ccc(C(C)C(=O)OCC(=O)N(C)C)cc1C2` (stereo unspecified) [Mepranoprofen arbamel], the “IC50 of cell viability” value is more than 46 µM.

With `C[C@H]1C[C@H]2[C@@H]3CCC4=CC(=O)C=C[C@]4(C)[C@H]3C(=O)C[C@]2(C)[C@@]1(O)C(=O)CO` [Meprednisone], the “IC50 of cell viability” value is more than 46 µM. Regarding `CCCC(C)(COC(N)=O)COC(N)=O` [Meprobamate], the “IC50 of cell viability” value is more than 46 µM. The result for `CCCNC(C)(C)COC(=O)c1ccccc1` [Meprylcaine hydrochloride] reads more than 46 µM; that for `CC[C@]1(c2cccc(O)c2)CCCCN(C)C1` [Meptazinol hydrochloride], more than 46 µM. The result for `c1ccc2c(c1)Sc1ccccc1N2CC1CN2CCC1CC2` (stereo unspecified) [Mequitazine] reads more than 46 µM. The result for `O.O.O.[Na+].[Na+].O[Hg]C1=C2OC/3=C/C(=O)/C(=C\C3=C(\C2=CC(=C1[O-])Br)C4=C(C=CC=C4)C([O-])=O)Br` [Merbromin] reads more than 46 µM.
